One test concerns INFα induced pSTAT3. Put plainly: INFα induced pSTAT3 in human PBMC. The test is classed as cell-based. The note with it: INFα 5000 units/ml, read-out: p-STAT3 IC50. How it is done:
(§1) Fresh Human PBMCs were resuspended in RPMI 1640 medium with 10% FBS. Cells were seeded in a round bottom 96-well plate at the concentration of 200,000 cells/well. A 10-point dilution series of test compound (top dose 10 uM, 1:5 dilution) was added to the well using the liquid dispenser (Tecan D300e) and incubated for 1 hour at 37 C. Then human INFα recombinant protein (R&D Systems) was added to the well at the final concentration of 5000 units/ml and incubated for 15 minutes at 37 C. Cell lysates were prepared and analyzed by Phospho STAT3 (Tyr705) cellular kit (Cisbio) or Phospho STAT5 (Tyr693) Kit (Meso Scale Discovery) following manufacturer's protocol.
For calculation of the inhibition rate, the relative pSTAT signal of each well=pSTAT signal of each well−the average pSTAT signal of baseline.
The inhibition %=(the average pSTAT signal of INFα treatment wells—the relative of pSTAT signal in each compound containing well)/the average pSTAT signal of INFα treatment wells * 100%
(§2) The curve was plotted as the inhibition % (y-axis) vs. compounds concentration (x-axis) and was fitted with log(inhibitor) vs. normalized response—Variable slope by GraphPad Prism7.0.

In test [1] the test system is JAK2/TYK2 (IL-12 induced pSTAT4). Put plainly: IL-12 induced pSTAT4 in human PBMC. In kind it is cell-based. As to conditions: IL-12 10 ng/ml. Here is the method:
as §1, with “IL-12” for “INFα”, “10 ng/ml” for “5000 units/ml”, “STAT4” for “STAT3 (Tyr705) cellular kit (Cisbio) or Phospho STAT5”
For calculation of the inhibition rate, the relative pSTAT4 signal of each well=pSTAT4 signal of each well−the average pSTAT4 signal of baseline.
The inhibition %=(the average pSTAT4 signal of IL-12 treatment wells—the relative of pSTAT4 signal in each compound containing well)/the average pSTAT4 signal of IL-12 treatment wells*100%
as §2

Test [2] addresses T1, human TYK2 (JH2domain-pseudokinase) (Homo sapiens, UniProt P29597).
T1 construct: host or cells: transiently transfected HEK293 cells; unpurified extract
The test is described as follows: TYK2 JH2 domain binding assay (KINOMEscan). The note with it: duplicate. How it is done: Binding constants for the compounds described herein against the JH2 domain were determined by the following protocol for a KINOMEscan® assay (DiscoveRx). A fusion protein of a partial length construct of human TYK2 (JH2domain-pseudokinase) (amino acids G556 to D888 based on reference sequence NP_003322.3) and the DNA binding domain of NFkB is expressed in transiently transfected HEK293 cells. From these HEK 293 cells, extracts are prepared in M-PER extraction buffer (Pierce) in the presence of Protease Inhibitor Cocktail Complete (Roche) and Phosphatase Inhibitor Cocktail Set II (Merck) per manufacturers' instructions. The TYK2 (JH2domain-pseudokinase) fusion protein is labeled with a chimeric double-stranded DNA tag containing the NFkB binding site fused to an amplicon for qPCR readout, which is added directly to the expression extract (the final concentration of DNA-tag in the binding reaction is 0.1 nM).
The liganded beads are blocked with excess biotin and washed with blocking buffer (SeaBlock (Pierce), 1% BSA, 0.05% Tween 20, 1 mM DTT) to remove unbound ligand and to reduce nonspecific binding.
Extracts are used directly in binding assays without any enzyme purification steps at a ≥10,000-fold overall stock dilution (final DNA-tagged enzyme concentration <0.1 nM). Extracts are loaded with DNA-tag and diluted into the binding reaction in a two-step process. First extracts are diluted 1:100 in 1× binding buffer (PBS/0.05% Tween 20/10 mM DTT/0.1% BSA/[…] sonicated salmon sperm DNA) containing 10 nM DNA-tag. This dilution is allowed to equilibrate at room temperature for 15 minutes and then subsequently diluted 1:100 in 1× binding buffer. Test compounds were prepared as 111×stocks in 100% DMSO. […] The compounds are then diluted directly into the assays such that the final concentration of DMSO was 0.9%. All reactions are performed in polypropylene 384-well plates. Each was a final volume of 0.02 mL.
Assays are incubated with shaking for 1 hour at room temperature. Then the beads are pelleted and washed with wash buffer (1×PBS, 0.05% Tween 20) to remove displaced kinase and test compound. […] The kinase concentration in the eluates was measured by qPCR. qPCR reactions are assembled by adding […] of kinase eluate to […] of qPCR master mix containing […] amplicon primers and […] amplicon probe. The qPCR protocol consisted of a 10 minute hot start at 95° C., followed by 35 cycles of 95° C. for 15 seconds, 60° C. for 1 minute.
Test compounds are prepared as 111×stocks in 100% DMSO. […] The compounds are then diluted directly into the assays such that the final concentration of DMSO was 0.9%. The Kds are determined using a compound top concentration of 30,000 nM. Kd measurements are performed in duplicate.
Binding constants (Kds) were calculated with a standard dose-response curve using the Hill equation: […]
The Hill Slope was set to −1. Curves were fitted using a non-linear least square fit with the Levenberg-Marquardt algorithm (Levenberg, K., A method for the solution of certain non-linear problems in least squares, Q. Appl. Math. 2, 164-168 (1944)).

The test system of the next test is IL-2-induced pSTAT5. Put plainly: IL-2-induced pSTAT5 in human PBMC. As to conditions: 20 ng/ml of IL-2. The test is classed as cell-based. How it is done:
(§3) Similar to the method for INFα induced pSTAT5 in human PBMC described above, these assays were performed to check if test compounds have cross-activity to JAK1. JAK2 and JAK3 pathways in human PBMC. The procedure is as described with change of stimuli to 10 ng/ml of GM-CSF or 20 ng/ml of IL-2.

The target of another test is T2, JAK2 (JH1 domain) (Homo sapiens, UniProt O60674).
T2 construct: inferred from 'similar to the method' for TYK2 JH2; DiscoverX (KINOMEscan)
Put plainly: JAK2 JH1 domain binding assay (KINOMEscan).

In another test the target is T3, JAK1 (JH2 domain) (Homo sapiens, UniProt P23458).
T3 construct: inferred from 'similar to the method' for TYK2 JH2; DiscoverX (KINOMEscan)
Put plainly: JAK1 JH2 domain binding assay (KINOMEscan).

Another test relates to INFα induced pSTAT5. Put plainly: INFα induced pSTAT5 in human PBMC. In kind it is cell-based. As to conditions: Homo sapiens, PBMC, INFα 5000 units/ml, read-out: p-STAT5 IC50.
The subject of another test is GM-CSF-induced pSTAT5. The test is described as follows: GM-CSF-induced pSTAT5 in human PBMC. The test is classed as cell-based. The note with it: 10 ng/ml of GM-CSF. How it is done: as §3

T1 sequence (P29597 556-888): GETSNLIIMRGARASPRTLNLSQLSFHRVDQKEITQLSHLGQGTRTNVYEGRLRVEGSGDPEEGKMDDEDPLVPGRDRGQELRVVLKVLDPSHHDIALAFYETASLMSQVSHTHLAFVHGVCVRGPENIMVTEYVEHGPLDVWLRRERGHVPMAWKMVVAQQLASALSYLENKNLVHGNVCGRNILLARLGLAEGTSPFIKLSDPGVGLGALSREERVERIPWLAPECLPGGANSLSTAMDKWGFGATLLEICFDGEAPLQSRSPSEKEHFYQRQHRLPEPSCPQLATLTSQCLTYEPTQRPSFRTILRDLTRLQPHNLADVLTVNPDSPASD
T2 sequence (O60674 849-1124 limits assumed): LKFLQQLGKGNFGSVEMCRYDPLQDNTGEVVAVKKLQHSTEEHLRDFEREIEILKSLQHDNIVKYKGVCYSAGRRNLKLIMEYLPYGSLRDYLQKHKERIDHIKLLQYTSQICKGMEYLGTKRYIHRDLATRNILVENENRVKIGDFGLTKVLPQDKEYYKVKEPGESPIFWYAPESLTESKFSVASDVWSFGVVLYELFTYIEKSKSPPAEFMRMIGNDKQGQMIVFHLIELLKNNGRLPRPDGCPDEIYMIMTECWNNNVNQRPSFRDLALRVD
T3 sequence (P23458 583-855 limits assumed): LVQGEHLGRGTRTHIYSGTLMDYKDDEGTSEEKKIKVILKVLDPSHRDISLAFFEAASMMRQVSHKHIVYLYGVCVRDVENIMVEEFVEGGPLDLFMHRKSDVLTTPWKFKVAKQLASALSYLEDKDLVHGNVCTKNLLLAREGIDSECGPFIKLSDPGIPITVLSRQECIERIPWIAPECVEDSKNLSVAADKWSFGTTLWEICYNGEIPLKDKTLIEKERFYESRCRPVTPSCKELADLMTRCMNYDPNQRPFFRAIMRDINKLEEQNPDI
Experimental for JAK1 (JH2 domain): (§4) Similar to the method for TYK2 JH2 binding described above, JAK1 JH2 and JAK2 JH1 domain binding assay was performed using DiscoverX's KINOMEscan™, but with change of kinase domain. These assays were performed to compare the binding selectivity of test compounds to JAK1 JH2 and JAK2 JH1 domain.
Experimental for JAK2 (JH1 domain): as §4

Take `CNc1cc2nc3c(cnn13)C(=O)NCCOCc1cnc(OC)c(c1)N2` [Example 1]: the 50% inhibitory concentration (IC50) (commonly the concentration at which inhibition is half-maximal) in the test with INFα induced pSTAT3 was 87.5 nM; in test [1], 281 nM. Moreover, the Kd (usually a measure of binding affinity in units of concentration) in test [2] worked out at 0.24 nM.
Regarding `CNc1cc2nc3c(cnn13)C(=O)NCCCOc1ccc(OC)c(c1)N2` [Example 3], the results for the half-inhibitory concentration (IC50) (in the test on INFα induced pSTAT3; in test [1]) were 1460 nM and 1150 nM, respectively. Besides, in test [2], binding was characterised by a dissociation constant (Kd) of 0.96 nM.
For `CNc1cc2nc3c(cnn13)C(=O)N[C@H](C)COCc1ccc(C(F)(F)F)c(c1)N2` [Example 10], the IC50 is above 10000 nM in the test with IL-2-induced pSTAT5 and 1.2 nM in the test with INFα induced pSTAT5. The values for the dissociation constant Kd (at JAK2 (JH1 domain); on JAK1 (JH2 domain); in test [2]) were 7300 nM, 430 nM and 0.0023 nM, respectively.
With `[2H]C([2H])([2H])NC(=O)c1nnc(NC(=O)C2CC2)cc1Nc1cccc(-c2ncn(C)n2)c1OC` [control, BMS-986165, reference compound], the half-inhibitory concentration (IC50) was found to be 442 nM in the test with IL-2-induced pSTAT5 and 1310 nM with GM-CSF-induced pSTAT5.

The values are drawn from patent publication US20250276977A1, “TYK2 INHIBITORS AND USES THEREOF” (Alumis Inc., priority 2019, published 2025).
